Where two headings read alike, the source gives them in different places.
What was measured:
rat TAAR1 = rat TAAR1 (Rattus norvegicus (Rat), UniProt Q923Y9); experiment: Radioligand binding assay on rat TAAR1;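 further: membranes from HEK293 cells stably transfected with rat TAAR1, tritiated TAAR1 radioligand, 1 h incubation at 4 °C, nonspecific binding determined with excess unlabeled ligand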
mouse TAAR1 = mouse TAAR1 (Mus musculus (Mouse), UniProt Q923Y8); experiment: Radioligand binding assay on mouse TAAR1
[1] = read-out: Ki (μM) rat, rat TAAR1, HEK-293 membranes, second value of cell mouse/rat
[2] = read-out: Ki (μM) mouse, mouse TAAR1, HEK-293 membranes, first value of cell mouse/rat

Chain of mouse TAAR1 (Q923Y8 whole entry): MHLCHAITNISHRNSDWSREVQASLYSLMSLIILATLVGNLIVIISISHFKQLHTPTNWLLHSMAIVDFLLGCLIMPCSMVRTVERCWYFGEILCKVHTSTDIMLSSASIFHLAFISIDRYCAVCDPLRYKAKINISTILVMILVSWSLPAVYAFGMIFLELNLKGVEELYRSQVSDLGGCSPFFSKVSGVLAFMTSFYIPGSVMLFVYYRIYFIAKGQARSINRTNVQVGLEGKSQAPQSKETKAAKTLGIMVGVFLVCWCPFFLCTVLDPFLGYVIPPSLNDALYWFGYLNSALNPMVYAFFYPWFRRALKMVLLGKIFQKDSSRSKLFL
Chain of rat TAAR1 (Q923Y9 whole entry): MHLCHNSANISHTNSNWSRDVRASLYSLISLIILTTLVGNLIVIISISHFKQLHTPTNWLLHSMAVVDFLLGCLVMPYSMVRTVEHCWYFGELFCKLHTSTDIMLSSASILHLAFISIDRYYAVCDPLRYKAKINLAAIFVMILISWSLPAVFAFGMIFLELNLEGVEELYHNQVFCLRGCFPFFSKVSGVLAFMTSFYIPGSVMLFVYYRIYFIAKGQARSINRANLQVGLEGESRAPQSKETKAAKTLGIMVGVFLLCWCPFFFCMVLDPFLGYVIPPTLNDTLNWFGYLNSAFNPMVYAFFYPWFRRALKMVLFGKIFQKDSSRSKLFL

Ki (rat TAAR1) [µM] | Ki (mouse TAAR1) [µM] | SMILES | also measured
0.0192 | 1.33 | O=C(Nc1cccc(Cl)c1)Nc1cccc([C@@H]2O[C@H]3CN[C@@H]2C3)c1 [Example 5, 1-(3-Chlorophenyl)-3-[3-[(1R,3S,4R)-2-oxa-5-azabicyclo[2.2.1]heptan-3-yl]phenyl]urea] | 
0.106 | 0.0044 | O=C(Nc1ccc([C@@H]2O[C@H]3CN[C@@H]2C3)cc1)c1ccc(Cl)cc1 [Example 7, 4-Chloro-N-[4-[(1R,3S,4R)-2-oxa-5-azabicyclo[2.2.1]heptan-3-yl]phenyl]benzamide] | 
0.344 | 0.0128 | CCc1n[nH]c(C(=O)Nc2ccc([C@H]3O[C@@H]4CN[C@H]3C4)cc2)c1C [Example 50, 3-Ethyl-4-methyl-N-[4-[(1S,3R,4S)-2-oxa-5-azabicyclo[2.2.1]heptan-3-yl]phenyl]-1H-pyrazole-5-carboxamide] | 
 |  | CCN(C[C@H]1COC(N)=N1)c1ccccc1 [reference compound] | Kd (rat TAAR1; read-out: dissociation constant (Kd) of the TAAR1 radioligand, rat TAAR1 membranes, saturation curve, usual value): ~2.3 nM; Kd (mouse TAAR1; read-out: dissociation constant (Kd) of the TAAR1 radioligand, mouse TAAR1 membranes, saturation curve, usual value): ~0.7 nM
2.67 | 0.0613 | O=C(Nc1ccc([C@H]2O[C@@H]3CN[C@H]2C3)cc1)c1[nH]nc(C2CC2)c1Cl [Example 37, 4-Chloro-3-cyclopropyl-N-[4-[(1S,3R,4S)-2-oxa-5-azabicyclo[2.2.1]heptan-3-yl]phenyl]-1H-pyrazole-5-carboxamide] | 
0.19 | 0.636 | Fc1ccc(CNc2ccc([C@H]3O[C@@H]4CN[C@H]3C4)cc2)cc1 [Example 40, N-[(4-Fluorophenyl)methyl]-4-[(1S,3R,4S)-2-oxa-5-azabicyclo[2.2.1]heptan-3-yl]aniline] | 
> 1.45 | 0.145 | O=C(Nc1ccc(F)cc1)c1ccc([C@@H]2O[C@H]3CN[C@@H]2C3)cc1 [Example 87, N-(4-Fluorophenyl)-4-[(1R,3S,4R)-2-oxa-5-azabicyclo[2.2.1]heptan-3-yl]benzamide] | 
0.34 | 0.0076 | FC(F)(F)c1cnc(Nc2ccc([C@H]3O[C@@H]4CN[C@H]3C4)cc2)cn1 [Example 22, N-[4-[(1S,3R,4S)-2-Oxa-5-azabicyclo[2.2.1]heptan-3-yl]phenyl]-5-(trifluoromethyl)pyrazin-2-amine] | 
0.107 | 0.0049 | CCOc1ccc(NC(=O)c2ccc([C@H]3O[C@@H]4CN[C@H]3C4)cc2)cn1 [Example 62, N-(6-Ethoxy-3-pyridyl)-4-[(1S,3R,4S)-2-oxa-5-azabicyclo[2.2.1]heptan-3-yl]benzamide] | 
1.9 | 0.0155 | CCOc1ccc(C(=O)Nc2ccc([C@H]3O[C@@H]4CN[C@H]3C4)cc2)cn1 [Example 15, 6-Ethoxy-N-[4-[(1S,3R,4S)-2-oxa-5-azabicyclo[2.2.1]heptan-3-yl]phenyl]pyridine-3-carboxamide] | 
 |  | CC(C)c1n[nH]c(C(=O)Nc2ccc([C@@H]3O[C@H]4CN[C@@H]3C4)cc2)c1F [Example 103, 4-Fluoro-3-isopropyl-N-[4-[(1R,3S,4R)-2-oxa-5-azabicyclo[2.2.1]heptan-3-yl]phenyl]-11H-pyrazole-5-carboxamide] | Ki (rat TAAR1; [1]): 0.0405 µM; Ki (mouse TAAR1; [2]): 0.0096 µM
1.02 | 0.0022 | O=C(Nc1ccc(C(F)(F)F)cc1)c1ccc([C@H]2O[C@@H]3CN[C@H]2C3)cc1 [Example 59, 4-[(1S,3R,4S)-2-Oxa-5-azabicyclo[2.2.1]heptan-3-yl]-N-[4-(trifluoromethyl)phenyl]benzamide] | 
0.0029 | 0.986 | O=C(Nc1ccc(C(F)(F)F)cc1)Nc1cccc([C@@H]2O[C@H]3CN[C@@H]2C3)c1 [Example 3, 1-[3-[(1R,3S,4R)-2-Oxa-5-azabicyclo[2.2.1]heptan-3-yl]phenyl]-3-[4-(trifluoromethyl)phenyl]urea] | 
 |  | CC(C)Cc1n[nH]c(C(=O)Nc2ccc([C@@H]3O[C@H]4CN[C@@H]3C4)cc2)c1F [Example 100, 4-Fluoro-3-isobutyl-N-[4-[(1R,3S,4R)-2-oxa-5-azabicyclo[2.2.1]heptan-3-yl]phenyl]-11H-pyrazole-5-carboxamide] | Ki (rat TAAR1; [1]): 0.0278 µM; Ki (mouse TAAR1; [2]): 0.0059 µM
0.809 | 0.0102 | O=C(Nc1ccc(Br)cc1)c1ccc([C@@H]2O[C@H]3CN[C@@H]2C3)cc1 [Example 86, N-(4-Bromophenyl)-4-[(1R,3S,4R)-2-oxa-5-azabicyclo[2.2.1]heptan-3-yl]benzamide] | 

SMILES | Ki (rat TAAR1) [µM] | Ki (mouse TAAR1) [µM] | also measured
FC(F)(F)c1nccc(Nc2ccc([C@H]3O[C@@H]4CN[C@H]3C4)cc2)n1 [Example 21, N-[4-[(1S,3R,4S)-2-Oxa-5-azabicyclo[2.2.1]heptan-3-yl]phenyl]-2-(trifluoromethyl)pyrimidin-4-amine] | 0.633 | 0.0197 | 
FC(F)(F)c1cc(Nc2ccc([C@H]3O[C@@H]4CN[C@H]3C4)cc2)ccn1 [Example 35, N-[4-[(1S,3R,4S)-2-Oxa-5-azabicyclo[2.2.1]heptan-3-yl]phenyl]-2-(trifluoromethyl)pyridin-4-amine] | 0.819 | 0.011 | 
c1ccc([C@H]2O[C@@H]3CN[C@H]2C3)cc1 [Example 9, (1S,3R,4S)-3-Phenyl-2-oxa-5-azabicyclo[2.2.1]heptane] | 0.369 | 0.0349 | 
O=C(COCCC(F)(F)F)Nc1ccc([C@@H]2O[C@H]3CN[C@@H]2C3)cc1 [Example 90, N-[4-[(1R,3S,4R)-2-Oxa-5-azabicyclo[2.2.1]heptan-3-yl]phenyl]-2-(3,3,3-trifluoropropoxy)acetamide] | 0.398 | 0.015 | 
O=C(Nc1ccc([C@@H]2O[C@H]3CN[C@@H]2C3)cc1)c1ccnc(C(F)(F)F)c1 [Example 26, N-[4-[(1R,3S,4R)-2-Oxa-5-azabicyclo[2.2.1]heptan-3-yl]phenyl]-2-(trifluoromethyl)pyridine-4-carboxamide] | 0.137 | 0.0223 | 
O=C(Nc1ccc([C@H]2O[C@@H]3CN[C@H]2C3)cc1)c1ccc(OCC2CC2)cc1 [Example 32, 4-(Cyclopropylmethoxy)-N-[4-[(1S,3R,4S)-2-oxa-5-azabicyclo[2.2.1]heptan-3-yl]phenyl]benzamide] | 0.164 | 0.0063 | 
c1ccc([C@@H]2O[C@H]3CN[C@@H]2C3)cc1 [Example 6, (1R,3S,4R)-3-Phenyl-2-oxa-5-azabicyclo[2.2.1]heptane] | 0.814 | 1.54 | 
CCOc1ccc(NC(=O)c2ccc([C@@H]3O[C@H]4CN[C@@H]3C4)cc2)cn1 [Example 95, N-(6-Ethoxy-3-pyridyl)-4-[(1R,3S,4R)-2-oxa-5-azabicyclo[2.2.1]heptan-3-yl]benzamide] | > 1.45 | 0.0613 | 
FC(F)(F)c1ccc(CNc2ccc([C@H]3O[C@@H]4CN[C@H]3C4)cc2)cc1 [Example 39, 4-[(1S,3R,4S)-2-Oxa-5-azabicyclo[2.2.1]heptan-3-yl]-N-[[4-(trifluoromethyl)phenyl]methyl]aniline] | 0.359 | 0.0069 | 
FC(F)(F)c1cnc(Nc2ccc([C@H]3O[C@@H]4CN[C@H]3C4)cc2)nc1 [Example 23, N-[4-[(1S,3R,4S)-2-Oxa-5-azabicyclo[2.2.1]heptan-3-yl]phenyl]-5-(trifluoromethyl)pyrimidin-2-amine] | 0.146 | 0.0157 | 
Brc1ccc([C@H]2O[C@@H]3CN[C@H]2C3)cc1 [Example 53, (1S,3R,4S)-3-(4-Bromophenyl)-2-oxa-5-azabicyclo[2.2.1]heptane] | 0.0052 | 0.0034 | 

Source: US9790230B2 (Hoffmann-La Roche Inc., priority 2015, dated 2017)
